# Results as given in article PMC4655241, “The Structure of a Novel Thermophilic Esterase from the Planctomycetes Species, Thermogutta terrifontis Reveals an Open Active Site Due to a Minimal ‘Cap’ Domain” (Frontiers in Microbiology, 2015).
# How the values were obtained:
# TtEst2 [1] = molecular target: T1, TtEst2 (Thermogutta terrifontis, UniProt A0A0X1KHD1); assay: X-ray crystal structure, soak; assay type: binding; details: carboxyl pocket of active site
# T1 construct: mature form, predicted signal peptide removed; pLATE52 N-terminal His6 tag with WELQ protease site (cleavage not mentioned); E. coli BL21 (DE3); monomer; residues 1-283 modelled
# TtEst2 [2] = molecular target: T1, TtEst2; assay: pNP release, A410; assay type: biochemical; details: 1 mM substrate, 20 mM HEPES, 100 mM NaCl, pH 7.5, 25 C
# T1 sequence (A0A0X1KHD1 entry or part of it): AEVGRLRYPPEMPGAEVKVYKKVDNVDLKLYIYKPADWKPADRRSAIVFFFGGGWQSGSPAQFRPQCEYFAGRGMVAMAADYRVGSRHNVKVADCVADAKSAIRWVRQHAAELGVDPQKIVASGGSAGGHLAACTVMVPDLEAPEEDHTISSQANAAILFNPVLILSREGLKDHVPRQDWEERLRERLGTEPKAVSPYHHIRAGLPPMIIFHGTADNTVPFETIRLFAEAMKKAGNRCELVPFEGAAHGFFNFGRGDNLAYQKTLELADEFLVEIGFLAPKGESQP
smiles,measurement,setting,value
CCCC(=O)O [butyrate],"X-ray crystal structure, soak","TtEst2 [1]; pH 4.5, 25 mM soak, oxyanion hole, 1.79 A",5AOB (butyrate bound)
CC(=O)Oc1ccc([N+](=O)[O-])cc1 [pNP-acetate],"pNP release, A410",TtEst2 [2],The enzyme was most active toward pNP-acetate
CCC(=O)O [propionate],"X-ray crystal structure, soak","TtEst2 [1]; pH 4.5, 25 mM soak, oxyanion hole, 1.71 A",5AOA (propionate bound)
CCCCC(=O)O [valerate],"X-ray crystal structure, soak","TtEst2 [1]; pH 4.5, soaked as 25 mM pNP-valerate, only valerate part seen, 1.79 A",5AOC (valerate bound)
